Data as given in patent US10463688B2, “Nylon-3 polymers active against Clostridium difficile” (priority 2015, dated 2019).
Values after ≈ are worked out from the molar mass of the structure shown.

How the values were obtained:
[1] = system: human red blood cells (hRBCs)
[2] = system: C. difficile spores (R20291 strain); assay: Viability of spores recovered from OIC assays (spore outplating), strain R20291; settings: for R20291 Mean Spore Viability: CFU post-assay/initial CFU
[3] = system: C. difficile spores (630Δerm strain); settings: 630Δerm spores; MH broth with taurocholate, 24 h at 37° C.
[4] = system: C. difficile spores (630Δerm strain); assay: Viability of spores recovered from OIC assays (spore outplating), strain 630Δerm; format: cell-based, Clostridium difficile; settings: CFU post-assay/initial CFU
Procedure: Experiments were conducted to determine whether any spores fail to germinate under the conditions of the OIC measurement but remain viable for subsequent germination and outgrowth. Spores were incubated for 24 h in the presence of germinant (taurocholate) and one of the polymers or other agents at multiple concentrations above the OIC. These solutions were then diluted 10 to 100-fold into sterile PBS, and further diluted upon plating onto BHIS agar medium containing germinant to achieve concentrations below the OIC of the relevant antimicrobial agent. Spore survival was calculated as the percentage of colony-forming units retrieved on outgrowth plates relative to the initial spore inoculum (100%).
Samples were diluted and plated onto BHIS medium containing 0.1% taurocholate and enumerated following incubation for at least 24 h at 37° C. Spore survival was calculated as the percentage of CFU post-assay/initial CFU.

[5] = system: C. difficile spores (R20291 strain); settings: MH broth with taurocholate, 24 h at 37° C.
[6] = system: C. difficile spores (R20291 strain); assay: microbe, parasite or virus in culture; settings: Clostridioides difficile, 24 h, read-out: OIC, minimum inhibition concentration for spore outgrowth
[7] = system: C. difficile spores (630Δerm strain); assay: microbe, parasite or virus in culture; settings: Clostridioides difficile, 24 h, read-out: OIC, minimum inhibition concentration for spore outgrowth
[8] = Clostridioides difficile, read-out: R20291 Mean Spore Viability

Compound | hemolytic activity (in words) [1] | R20291 Mean Spore Viability ([2]; concentration 10 μg/ml) | R20291 Mean Spore Viability ([2]; concentration 20 μg/ml) | R20291 Mean Spore Viability ([2]; concentration 40 μg/ml) | R20291 Mean Spore Viability ([2]; concentration 80 μg/ml) | OIC, minimum inhibition concentration for spore outgrowth [3] [µg/mL] | 630ΔErm Mean Spore Viability ([4]; concentration 20 μg/ml) | 630ΔErm Mean Spore Viability ([4]; concentration 40 μg/ml) | 630ΔErm Mean Spore Viability ([4]; concentration 80 μg/ml) | OIC, minimum inhibition concentration for spore outgrowth [5] [µg/mL] | MIC [6] [µg/mL] | viability at 0.5 µg/mL [2, 8] [%] | viability at 1 µg/mL [2, 8] [%] | viability at 2 µg/mL [2, 8] [%] | viability at 4 µg/mL [2, 8] [%] | viability at 8 µg/mL [2, 8] [%] | MIC [7] [µg/mL]
CC[C@H](C)[C@H](NC(=O)[C@H](CCCCN)NC(=O)[C@H](CCC(=O)O)NC(=O)[C@H](CCCCN)NC(=O)[C@H](CO)NC(=O)[C@H](CCCCN)NC(=O)[C@H](CCCNC(=N)N)NC(=O)[C@H](Cc1ccccc1)NC(=O)[C@H](Cc1ccccc1)NC(=O)[C@H](CC(=O)O)NC(=O)CNC(=O)[C@H](CC(C)C)NC(=O)[C@@H](N)CC(C)C)C(=O)NCC(=O)N[C@@H](CCCCN)C(=O)N[C@@H](CCC(=O)O)C(=O)N[C@@H](Cc1ccccc1)C(=O)N[C@@H](CCCCN)C(=O)N[C@@H](CCCNC(=N)N)C(=O)N[C@H](C(=O)N[C@H](C(=O)N[C@@H](CCC(N)=O)C(=O)N[C@@H](CCCNC(=N)N)C(=O)N[C@H](C(=O)N[C@@H](CCCCN)C(=O)N[C@@H](CC(=O)O)C(=O)N[C@@H](Cc1ccccc1)C(=O)N[C@@H](CC(C)C)C(=O)N[C@@H](CCCNC(=N)N)C(=O)N[C@@H](CC(N)=O)C(=O)N[C@@H](CC(C)C)C(=O)N[C@H](C(=O)N1CCC[C@H]1C(=O)N[C@@H](CCCNC(=N)N)C(=O)N[C@H](C(=O)N[C@@H](CCC(=O)O)C(=O)N[C@@H](CO)C(=O)O)[C@@H](C)O)C(C)C)[C@@H](C)CC)C(C)C)[C@@H](C)CC [LL-37] | significant hemolytic activity | 0.4% (±0.7%) | 1.2% (±0.7%) | 3.6% (±1.8%) | 5.8% (±2.9%) | 10 | 5.5% (±7.4%) | 4.0% (±4.0%) | 7.8% (±3.9%) | 5 | – | – | – | – | – | – | –
CN[C@H](CC(C)C)C(=O)N[C@H]1C(=O)N[C@@H](CC(N)=O)C(=O)N[C@H]2C(=O)N[C@H]3C(=O)N[C@H](C(=O)N[C@H](C(=O)O)c4cc(O)cc(O)c4-c4cc3ccc4O)[C@H](O)c3ccc(c(Cl)c3)Oc3cc2cc(c3O[C@@H]2O[C@H](CO)[C@@H](O)[C@H](O)[C@H]2O[C@H]2C[C@](C)(N)[C@H](O)[C@H](C)O2)Oc2ccc(cc2Cl)[C@H]1O [vancomycin] | – | – | – | – | – | – | – | – | – | – | 0.25 (≈ 0.173 µM) | 21.1 | 7.7 | 3.4 | 1.3 | 0.9 | > 32
